Assay results: ChEMBL document CHEMBL1287691, “Pyrazole derivatives from azines of substituted phenacyl aryl/cyclohexyl sulfides and their antimycobacterial activity” (2010)
In brackets after ≈: the same amount, converted by molar mass.

Legend:
[1] = test system: Mycobacterium tuberculosis; test: Antimycobacterial activity against Mycobacterium tuberculosis H37Rv by agar dilution method; format: functional
[2] = test system: Mycobacterium tuberculosis; test: Antimycobacterial activity against Mycobacterium tuberculosis H37Rv at 6.25 ug/ml; format: functional

SMILES	MIC [1] [µg/mL]	inhibition at 6.25 µg/mL [2] [%]
NNC(=O)c1ccncc1 [ISONIAZID]	0.05 (≈ 0.365 µM)	–
COc1ccc(/C(=C\Sc2ccc(Cl)cc2)n2cc(Sc3ccc(Cl)cc3)c(-c3ccc(OC)cc3)n2)cc1	6.25 (≈ 10.6 µM)	–
COc1ccc(/C(=C/SC2CCCCC2)n2cc(SC3CCCCC3)c(-c3ccc(OC)cc3)n2)cc1	12.5 (≈ 23.4 µM)	–
Clc1ccc(/C(=C\Sc2ccccc2)n2cc(Sc3ccccc3)c(-c3ccc(Cl)cc3)n2)cc1	25 (≈ 47 µM)	–
Cc1ccc(S/C=C(/c2ccc(Cl)cc2)n2cc(Sc3ccc(C)cc3)c(-c3ccc(Cl)cc3)n2)cc1	12.5 (≈ 22.3 µM)	–
C(/SC1CCCCC1)=C(\c1ccccc1)n1cc(SC2CCCCC2)c(-c2ccccc2)n1	12.5 (≈ 26.3 µM)	–
COCC(=O)/C(=N/Nc1c(C)n[nH]c1C)C(=O)OC	–	28
Clc1ccc(S/C=C(/c2ccc3ccccc3c2)n2cc(Sc3ccc(Cl)cc3)c(-c3ccc4ccccc4c3)n2)cc1	12.5 (≈ 19.8 µM)	–
Cc1ccc(/C(=C\SC2CCCCC2)n2cc(SC3CCCCC3)c(-c3ccc(C)cc3)n2)cc1	3.13 (≈ 6.23 µM)	–
O=[N+]([O-])c1ccc(/C(=C/SC2CCCCC2)n2cc(SC3CCCCC3)c(-c3ccc([N+](=O)[O-])cc3)n2)cc1	1.56 (≈ 2.76 µM)	–
Cc1ccc(/C(=C/SC2CCCCC2)n2cc(SC3CCCCC3)c(-c3ccc(C)cc3)n2)cc1	6.25 (≈ 12.4 µM)	–
Clc1ccc(S/C=C(\c2ccc3ccccc3c2)n2cc(Sc3ccc(Cl)cc3)c(-c3ccc4ccccc4c3)n2)cc1	6.25 (≈ 9.89 µM)	–
C(/SC1CCCCC1)=C(/c1ccccc1)n1cc(SC2CCCCC2)c(-c2ccccc2)n1	6.25 (≈ 13.2 µM)	–
Clc1ccc(S/C=C(\c2ccc(Cl)cc2)n2cc(Sc3ccc(Cl)cc3)c(-c3ccc(Cl)cc3)n2)cc1	1.56 (≈ 2.6 µM)	–
CC[C@@H](CO)NCCN[C@@H](CC)CO [ETHAMBUTOL]	1.56 (≈ 7.64 µM)	–
O=[N+]([O-])c1ccc(/C(=C\SC2CCCCC2)n2cc(SC3CCCCC3)c(-c3ccc([N+](=O)[O-])cc3)n2)cc1	0.78 (≈ 1.38 µM)	–
Clc1ccc(/C(=C\SC2CCCCC2)n2cc(SC3CCCCC3)c(-c3ccc(Cl)cc3)n2)cc1	1.56 (≈ 2.87 µM)	–
Clc1ccc(/C(=C/Sc2ccccc2)n2cc(Sc3ccccc3)c(-c3ccc(Cl)cc3)n2)cc1	> 25	–
Cc1ccc(/C(=C\Sc2ccc(Cl)cc2)n2cc(Sc3ccc(Cl)cc3)c(-c3ccc(C)cc3)n2)cc1	6.25 (≈ 11.2 µM)	–
CC(=O)/C(=N/Nc1c(C)n[nH]c1C)C(=O)O	–	29
Cc1ccc(S/C=C(\c2ccc(Cl)cc2)n2cc(Sc3ccc(C)cc3)c(-c3ccc(Cl)cc3)n2)cc1	12.5 (≈ 22.3 µM)	–
NC(=O)c1cnccn1 [PYRAZINAMIDE]	6.25 (≈ 50.8 µM)	–
Clc1ccc(S/C=C(\c2ccccc2)n2cc(Sc3ccc(Cl)cc3)c(-c3ccccc3)n2)cc1	12.5 (≈ 23.5 µM)	–
COc1ccc(/C(=C\SC2CCCCC2)n2cc(SC3CCCCC3)c(-c3ccc(OC)cc3)n2)cc1	3.13 (≈ 5.85 µM)	–
Clc1ccc(S/C=C(/c2ccccc2)n2cc(Sc3ccc(Cl)cc3)c(-c3ccccc3)n2)cc1	> 25	–
Clc1ccc(S/C=C(/c2ccc(Cl)cc2)n2cc(Sc3ccc(Cl)cc3)c(-c3ccc(Cl)cc3)n2)cc1	3.13 (≈ 5.21 µM)	–
